Patent publication US10822325B2, “Human GLUT5 specific inhibitors and methods of treatment” (UNM RAINFOREST INNOVATIONS, priority 2015, dated 2020)
“Also recorded” adds a separate entry of the source.

How the values were obtained:
human GLUT3 = biological target: T1, human GLUT3 (Homo sapiens, UniProt P11169); assay: Glucose entrance counter-flow transport in GLUT3 proteoliposomes; assay type: biochemical; settings: 2 mM compound
T1 construct: Full length DNA was subcloned into pFastBac1 (Life Technologies) vector with a N-terminal hexahistidine tag; hexahistidine (N); made in house; host or cells: Sf21 insect cells (baculovirus, pFastBac1)
T1 sequence (P11169 1-496): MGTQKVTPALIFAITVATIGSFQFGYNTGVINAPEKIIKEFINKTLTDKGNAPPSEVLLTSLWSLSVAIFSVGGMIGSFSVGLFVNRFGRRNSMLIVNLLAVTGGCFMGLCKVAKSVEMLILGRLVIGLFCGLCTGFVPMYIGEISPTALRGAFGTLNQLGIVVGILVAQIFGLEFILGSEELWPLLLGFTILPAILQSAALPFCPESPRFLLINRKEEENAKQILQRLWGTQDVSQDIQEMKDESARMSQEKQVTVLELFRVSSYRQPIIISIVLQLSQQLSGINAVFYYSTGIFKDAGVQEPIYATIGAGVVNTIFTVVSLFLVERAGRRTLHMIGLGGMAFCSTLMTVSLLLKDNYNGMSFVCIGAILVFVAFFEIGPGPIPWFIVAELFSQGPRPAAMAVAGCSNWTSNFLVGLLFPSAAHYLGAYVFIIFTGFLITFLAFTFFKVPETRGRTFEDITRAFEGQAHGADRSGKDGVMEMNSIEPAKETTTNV
Method: (§1) cDNAs of GLUT1, 3, 4 and 5 were purchased from Open Biosystems (GE Healthcare). cDNAs of GLUT2 was a gift from Prof. Graeme Bell at University of Chicago. Full length DNA was subcloned into pFastBac1 (Life Technologies) vector with a N-terminal hexahistidine tag. Bacmids were generated in DH10Bac E. coli cells (Life Technologies). Baculoviruses were produced using Cellfectin II Reagent and amplified in Sf21 insect cells (Life Technologies). Cells were maintained at 26° C., and P1 (10^6 pfu/mL) was collected from infected cells after 72 hours. SF21 cells were propagated in HyClone SFX-Insect media (GE Healthcare), supplemented with 5% fetal bovine serum (Biowest), 4.8 mM glutamine, antibiotics (100 units/mL Penicillin G and 100 μg/mL streptomycin sulfate) and amphotericin B (2.5 μg/mL). […]
(§2) For the entrance counterflow transport in proteoliposomes, the assay was started by the addition of 5 μL proteoliposomes solution (OD600 nm ˜30) to 200 μL, assay solution, containing 10 μM ^14C-radiolabeled glucose (for GLUT1 wild-type or F379H mutant and GLUT2-4) or fructose (for GLUT5 wild-type or H387F mutant and GLUT2) (Moravek Biochemicals) in 100 mM KPi buffer at pH 7.5. After one minute (or different specified time points when the time-dependent counter-flow transport activity was measured), the transport was stopped with ice-chilled quench buffer [0.1 M KPi (pH 5.5) and 0.1 M lithium chloride]. […]

GLUT5H387F = biological target: T2, GLUT5H387F (Homo sapiens, UniProt P22732, H387F); assay: Fructose entrance counter-flow transport in GLUT5H387F mutant proteoliposomes; assay type: biochemical; settings: 2 mM compound
T2 construct: Full length DNA was subcloned into pFastBac1 (Life Technologies) vector with a N-terminal hexahistidine tag; hexahistidine (N); made in house; host or cells: Sf21 insect cells (baculovirus, pFastBac1)
T2 sequence (P22732 1-501 H387F): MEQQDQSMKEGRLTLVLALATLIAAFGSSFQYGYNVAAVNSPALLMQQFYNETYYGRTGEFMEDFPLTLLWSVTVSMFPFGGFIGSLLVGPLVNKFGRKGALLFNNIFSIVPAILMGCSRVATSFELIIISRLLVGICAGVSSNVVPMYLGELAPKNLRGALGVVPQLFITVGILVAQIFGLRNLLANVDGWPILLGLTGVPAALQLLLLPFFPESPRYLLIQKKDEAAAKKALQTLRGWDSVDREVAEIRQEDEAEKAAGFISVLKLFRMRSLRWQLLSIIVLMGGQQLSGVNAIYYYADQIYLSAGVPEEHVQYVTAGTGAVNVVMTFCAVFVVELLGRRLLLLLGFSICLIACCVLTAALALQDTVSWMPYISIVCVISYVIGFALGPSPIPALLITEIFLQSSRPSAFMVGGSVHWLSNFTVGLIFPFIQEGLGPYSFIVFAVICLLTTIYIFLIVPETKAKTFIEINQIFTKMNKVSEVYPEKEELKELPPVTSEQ
Method: as §1, §2

CS(=O)(=O)c1ccc(Nc2ccc3c(c2)OCO3)c([N+](=O)[O-])c1 [MSNBA, N-[4-(methylsulfonyl)-2-nitrophenyl]-1,3-benzodioxol-5-amine]
effect on GLUT3 glucose transport (human GLUT3): did not affect; also recorded: did not influence | activity retained by GLUT5H387F (GLUT5H387F): 93% | effect on GLUT5H387F fructose transport (GLUT5H387F): largely unaffected; also recorded: almost unsusceptible
